Assay results reported in ChEMBL document CHEMBL5247619, “Novel alpha6 preferring GABA-A receptor ligands based on loreclezole” (Eur J Med Chem, 2022).
pEC50: −log10 of the molar value.

Legend:
[1] = target: Gamma-aminobutyric acid receptor subunit alpha-6/beta-3/gamma-2 (Rattus norvegicus) (UniProt P18508+P30191+P63079); assay: Modulation of rat alpha6beta3gamma2 GABA A receptor expressed in Xenopus oocytes assessed as desensitization of GABA current at -80 mV holding potential at more than 300 uM by two-electrode voltage-clamp assay relative to control; assay type: cell-based; conditions: filed as modulator
[2] = target: Gamma-aminobutyric acid receptor subunit alpha-6/beta-3/gamma-2 (Rattus norvegicus, UniProt P18508+P30191+P63079); assay: Modulation of rat alpha6beta3gamma2 GABA A receptor expressed in Xenopus oocytes assessed as reduction in desensitization at -80 mV holding potential by two-electrode voltage-clamp assay; assay type: cell-based
Sequence of Gamma-aminobutyric acid receptor subunit alpha-6/beta-3/gamma-2 (P18508 whole entry): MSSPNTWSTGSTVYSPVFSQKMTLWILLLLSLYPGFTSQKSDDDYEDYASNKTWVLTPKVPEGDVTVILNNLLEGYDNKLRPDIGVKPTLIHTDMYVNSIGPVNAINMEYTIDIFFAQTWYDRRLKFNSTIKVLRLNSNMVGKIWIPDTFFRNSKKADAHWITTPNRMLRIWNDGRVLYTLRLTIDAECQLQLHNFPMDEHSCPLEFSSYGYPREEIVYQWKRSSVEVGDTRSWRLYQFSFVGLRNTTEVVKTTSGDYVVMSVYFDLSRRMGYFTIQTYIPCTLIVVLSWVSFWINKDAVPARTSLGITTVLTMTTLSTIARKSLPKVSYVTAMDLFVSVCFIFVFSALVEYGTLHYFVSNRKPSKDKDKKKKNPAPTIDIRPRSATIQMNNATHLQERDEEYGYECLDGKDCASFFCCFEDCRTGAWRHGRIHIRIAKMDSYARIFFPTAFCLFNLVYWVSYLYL
Sequence of Gamma-aminobutyric acid receptor subunit alpha-6/beta-3/gamma-2 (P30191 whole entry): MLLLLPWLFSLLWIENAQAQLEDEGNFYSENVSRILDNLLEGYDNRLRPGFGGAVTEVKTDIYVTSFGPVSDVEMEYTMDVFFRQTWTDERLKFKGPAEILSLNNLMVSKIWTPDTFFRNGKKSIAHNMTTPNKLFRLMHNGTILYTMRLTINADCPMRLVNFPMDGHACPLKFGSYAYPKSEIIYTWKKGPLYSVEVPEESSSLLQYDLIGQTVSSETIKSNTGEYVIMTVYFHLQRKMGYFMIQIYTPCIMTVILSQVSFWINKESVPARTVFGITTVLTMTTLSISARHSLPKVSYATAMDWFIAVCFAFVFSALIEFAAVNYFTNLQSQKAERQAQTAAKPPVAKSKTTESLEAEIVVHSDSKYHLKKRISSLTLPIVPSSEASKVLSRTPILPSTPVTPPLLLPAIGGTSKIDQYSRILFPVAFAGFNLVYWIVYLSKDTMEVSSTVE
Sequence of Gamma-aminobutyric acid receptor subunit alpha-6/beta-3/gamma-2 (P63079 whole entry): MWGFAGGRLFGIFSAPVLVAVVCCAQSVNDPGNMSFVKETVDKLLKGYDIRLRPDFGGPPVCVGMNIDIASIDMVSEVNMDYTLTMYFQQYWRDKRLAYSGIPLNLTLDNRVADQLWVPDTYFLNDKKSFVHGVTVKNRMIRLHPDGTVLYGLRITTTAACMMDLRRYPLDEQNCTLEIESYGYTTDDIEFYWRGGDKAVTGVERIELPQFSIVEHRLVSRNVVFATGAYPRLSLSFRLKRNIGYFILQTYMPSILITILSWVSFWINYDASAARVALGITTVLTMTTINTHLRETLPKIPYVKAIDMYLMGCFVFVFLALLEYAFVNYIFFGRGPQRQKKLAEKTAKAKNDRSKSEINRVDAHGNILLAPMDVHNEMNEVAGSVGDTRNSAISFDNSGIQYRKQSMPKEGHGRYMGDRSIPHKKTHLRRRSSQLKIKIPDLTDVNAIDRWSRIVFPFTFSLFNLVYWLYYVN

SMILES | Activity [1] [%] | pEC50 [2]
Cc1ccc(C(C)(C)CC#N)c(Cl)c1 | 1360 | 4.55
Cc1ccc(C(C)CC#N)c(Cl)c1 (racemic) | 600 | 4.42
Cl/C(=C\n1cncn1)c1ccc(Cl)cc1Cl [LORECLEZOLE] | 600 | 4.42
